{"source": "patent US20230181484A1", "about": "“Uses and Formulations of Cannabinoids” (priority 2020, published 2023)", "key": {"[1]": {"assay": "systemic exposure after i.p. and oral application of CBD in mice (Deiana et al. 2012)", "assay_type": "in vivo", "settings": "20 mg/kg, assuming dose-proportional plasma concentrations", "procedure": "A comparative investigation for systemic exposure after i.p. and oral application of CBD in mice and rats has shown that 120 mg/kg as a single dose leads to a maximum plasma concentration of 14,000 ng/ml in mice (S. Deiana et al. (2012). Plasma and brain pharmacokinetic profile of cannabidiol (CBD), cannabidivarine (CBDV), Delta(9)-tetrahydrocannabivarin (THCV) and cannabigerol (CBG) in rats and mice following oral and intraperitoneal administration and CBD action on obsessive-compulsive behaviour. Psychopharmacology (Bed) 219(3): 859-73)."}, "[2]": {"settings": "decimal logarithm of n-octanol/water partition coefficient; cited from earlier work"}, "[3]": {"settings": "mice, 120 mg/kg single dose; cited from earlier work"}, "IL-6 secretion": {"test_system": "IL-6 secretion", "settings": "cellular models, majority of cases; cited from earlier work"}, "[4]": {"test_system": "LPS-induced acute lung injury", "settings": "cited from earlier work"}, "[5]": {"test_system": "LPS-induced acute lung injury", "settings": "mice, 20 mg/kg, 6 h after LPS; cited from earlier work"}, "human mononuclear cells": {"test_system": "human mononuclear cells", "settings": "nanomolar or micromolar concentrations; cited from earlier work"}, "human neutrophils": {"test_system": "human neutrophils", "settings": "cited from earlier work"}, "CD83": {"test_system": "CD83", "settings": "cited from earlier work"}, "microglial cells": {"test_system": "microglial cells", "settings": "1-16 μmol/l; cited from earlier work"}, "[6]": {"test_system": "chemically induced acute hepatitis", "settings": "mice, 25 mg/kg; cited from earlier work"}, "[7]": {"test_system": "activated memory T cell line", "settings": "1-5 μmol/l, cited from earlier work"}, "[8]": {"test_system": "ischemia-reperfusion-induced kidney injury", "settings": "mice, 10 mg/kg after induced kidney injury; cited from earlier work"}, "NK, NKT, T and B cells": {"test_system": "NK, NKT, T and B cells", "settings": "healthy rats, cited from earlier work"}, "IL-6 receptor": {"molecular_target": "T1, IL-6 receptor (Homo sapiens, UniProt P08887)", "T1 construct": "host or cells: patients (in vivo)", "T1 sequence (P08887 20-468)": "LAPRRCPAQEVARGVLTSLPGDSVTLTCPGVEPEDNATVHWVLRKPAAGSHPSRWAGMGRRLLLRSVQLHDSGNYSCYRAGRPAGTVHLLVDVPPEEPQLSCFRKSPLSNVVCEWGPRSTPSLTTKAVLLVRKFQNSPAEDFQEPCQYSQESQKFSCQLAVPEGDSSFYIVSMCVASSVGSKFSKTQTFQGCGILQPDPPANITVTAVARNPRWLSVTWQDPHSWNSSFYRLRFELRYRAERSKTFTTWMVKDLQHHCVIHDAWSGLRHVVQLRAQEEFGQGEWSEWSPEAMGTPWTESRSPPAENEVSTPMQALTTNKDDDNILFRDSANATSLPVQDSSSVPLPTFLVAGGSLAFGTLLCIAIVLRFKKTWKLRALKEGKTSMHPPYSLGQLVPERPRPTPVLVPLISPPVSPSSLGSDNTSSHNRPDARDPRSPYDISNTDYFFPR", "settings": "patients with severe SARS-CoV-2 pneumonia, preliminary clinical data; cited from earlier work"}, "[9]": {"settings": "mice, 0.3-80 mg/kg i.p. 60 min before LPS"}}, "note": "Where two headings read alike, the source gives them in different places."}
{"molecule": "C=C(C)[C@@H]1CCC(C)=C[C@H]1c1c(O)cc(CCCCC)cc1O", "note": "[CBD, 2-[(1R,6R)-3-methyl-6-(1-methylethenyl)-2-cyclohexen-1-yl]-5-pentyl-1,3-benzenediol]", "values": [{"measurement": "target peak exposure", "setting": "[1]", "result": "2,300 ng/ml"}, {"measurement": "log P", "setting": "[2]", "result": "about 6.1"}, {"measurement": "maximum plasma concentration", "setting": "[3]", "result": "14,000 ng/ml"}, {"measurement": "effective concentration, suppressive effect on IL-6 secretion", "setting": "IL-6 secretion", "result": "~5", "unit": "µM"}, {"measurement": "number of leukocytes including macrophages and neutrophils in bronchoalveolar lavage fluid", "setting": "[4]; mice, 20 mg/kg, after LPS-induced lung inflammation", "result": "decreases"}, {"measurement": "myeloperoxidase activity", "setting": "[4]; [9]", "result": "significantly decreased"}, {"measurement": "pro-inflammatory cytokine production including TNF-α and IL-6", "setting": "[4]; [9]", "result": "significantly decreased"}, {"measurement": "total leukocytes migration", "setting": "[4]; [9]", "result": "significantly decreased"}, {"measurement": "vascular permeability", "setting": "[4]; [9]", "result": "significantly decreased"}, {"measurement": "dose at which effects reached a nearly maximum extent", "setting": "[4]; prophylactic application, i.p.", "result": 20, "unit": "mg/kg"}, {"measurement": "leukocyte migration (neutrophil, macrophages and lymphocytes) into the lungs", "setting": "[5]", "result": "decreased"}, {"measurement": "mechanical lung function", "setting": "[5]", "result": "improved"}, {"measurement": "myeloperoxidase activity in the lung tissue", "setting": "[5]", "result": "decreased"}, {"measurement": "production of proinflammatory cytokines/chemokines", "setting": "[5]", "result": "reduced"}, {"measurement": "vascular permeability", "setting": "[5]", "result": "reduced"}, {"measurement": "release of pro-inflammatory cytokines", "setting": "human mononuclear cells", "result": "suppressed"}, {"measurement": "migration of human neutrophils", "setting": "human neutrophils", "result": "inhibits"}, {"measurement": "CD83 dendritic cell activation marker", "setting": "CD83; dendritic cells derived from healthy individuals", "result": "not"}, {"measurement": "CD83 dendritic cell activation marker", "setting": "CD83; dendritic cells derived from individuals with HIV infection", "result": "suppresses"}, {"measurement": "apoptosis in microglial cells", "setting": "microglial cells", "result": "induces apoptosis"}, {"measurement": "expression of MDSCs", "setting": "[6]", "result": "induces"}, {"measurement": "pro-inflammatory cytokines such as IL-2, TNF-α and IL-6", "setting": "[6]", "result": "reduction"}, {"measurement": "IL-6 production and secretion", "setting": "[7]", "result": "decreased"}, {"measurement": "production of IL-10", "setting": "[7]", "result": "increased"}, {"measurement": "autoantigen-specific Th17 cell phenotype (IL-17)", "setting": "[7]; dose-dependently", "result": "reduced"}, {"measurement": "decreased Treg17 and increased Th17 levels", "setting": "[8]", "result": "reversed"}, {"measurement": "effect on induced kidney injury", "setting": "[8]", "result": "renoprotective"}, {"measurement": "numbers of NK cells and NKT cells", "setting": "NK, NKT, T and B cells; 2.5 mg/kg per day", "result": "increased"}, {"measurement": "numbers of NK cells and NKT cells", "setting": "NK, NKT, T and B cells; 5 mg/kg per day", "result": "not affected"}, {"measurement": "number of T cells including T helper cells and cytotoxic T cells and of B cells", "setting": "NK, NKT, T and B cells; daily 5 mg/kg", "result": "significantly reduced"}]}
{"molecule": "tocilizumab: humanized monoclonal antibody against the IL-6 receptor", "values": [{"measurement": "clinical effect of IL-6 blockade therapy", "setting": "IL-6 receptor", "result": "beneficial effects"}]}
